Laboratory results: publication PMC6934184, “Selective DNA-PKcs inhibition extends the therapeutic index of localized radiotherapy and chemotherapy” (The Journal of Clinical Investigation, 2019)

Biological target: T1, MAPK10 (JNK3) (Homo sapiens, UniProt P53779)
T1 construct: purchased Thermo Fisher Scientific (Life Technologies) SelectScreen
Experiment: SelectScreen Z'LYTE
Format: biochemical
Conditions: ATP 100 µM
In short: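 NU5455 was profiled across the SelectScreen Broad panel of kinase activity and binding assays. Z'LYTE reactions such as CSF1R ran at apparent Km ATP, while the Adapta CAMK1 assay used ATP listed as 10. Values are given as percent.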

T1 sequence (P53779 whole entry): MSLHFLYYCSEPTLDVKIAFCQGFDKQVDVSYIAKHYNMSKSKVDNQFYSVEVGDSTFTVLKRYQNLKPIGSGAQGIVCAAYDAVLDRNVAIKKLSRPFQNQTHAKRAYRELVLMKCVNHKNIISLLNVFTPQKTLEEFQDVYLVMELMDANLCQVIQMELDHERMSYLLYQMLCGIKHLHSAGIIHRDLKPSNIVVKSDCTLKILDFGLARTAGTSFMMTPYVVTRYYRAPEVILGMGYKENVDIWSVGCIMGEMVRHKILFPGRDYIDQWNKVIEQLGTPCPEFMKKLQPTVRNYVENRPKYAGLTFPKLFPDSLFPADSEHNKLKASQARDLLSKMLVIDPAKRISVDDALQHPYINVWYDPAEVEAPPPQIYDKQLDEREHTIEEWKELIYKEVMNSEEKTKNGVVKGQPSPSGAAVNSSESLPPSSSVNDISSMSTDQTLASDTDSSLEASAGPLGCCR

CN(C(=O)CN1CCOCC1)c1ccc2sc3c(-c4cccc5c(=O)cc(N6CC7CCC(C6)O7)oc45)cccc3c2c1 [NU5455]
inhibition at 1 µM: 9%
